We go through 31 compounds from patent publication US9145391B2, “Bipyridylaminopyridines as Syk inhibitors” (Merck Sharp & Dohme Corp., priority 2011, dated 2015).

Structures are written as SMILES.

Usually IC50 stands for the concentration that inhibits the measured activity by half.

The target of the assay is recombinant human GST-Syk (Homo sapiens (Human), UniProt P43405). Kind of assay: Homogeneous Time-Resolved Fluorescence (HTRF) assay for the recombinant human Syk enzyme. The class given is biochemical. Particulars: recombinant human GST-Syk 5 pM, ATP 25 μM, read-out: rhSyk IC50. The method, then: Syk inhibition may be determined using the following assay protocol: Homogeneous Time-Resolved Fluorescence (HTRF) Assay for the Recombinant Human Syk Enzyme: A recombinant GST-hSyk fusion protein was used to measure potency of compounds to inhibit human Syk activity. […] To initiate the reaction the biotinylated substrate peptide (250 nM final concentration) that contains the phosphorylation site for Syk was added with magnesium (5 mM final concentration) and ATP (25 μM final concentration). […] Final volume of the quenching solution was 10 μL.
On the technique in general: In TR-FRET formats the signal depends on donor and acceptor labels being close together.

As to `Cc1cc(Nc2cc(C(F)F)ccn2)nc(-c2ccc(C(C)(O)[C@H]3CC[C@H](C(=O)OCOC(=O)OC(C)C)CC3)nc2)c1` (single isomer, unassigned) [Example 20-1, {[(propan-2-yloxy)carbonyl]oxy}methyl trans-4-[(1R or 1S)-1-(6-{[4-(difluoromethyl)pyridin-2-yl]amino}-4-methyl-2,3′-bipyridin-6′-yl)-1-hydroxyethyl] cyclohexanecarboxylate], the IC50 was found to be 19 nM.

Turning to `CCOC(=O)OC(C)OC(=O)[C@H]1CC[C@H](C(C)(O)c2ccc(-c3cc(C)cc(Nc4cc(C(F)F)ccn4)n3)cn2)CC1` (single isomer, unassigned) [Example 20-2, 1-[(ethoxycarbonyl)oxy]ethyl trans-4-[(1R or 1S)-1-(6-{[4-(difluoromethyl)pyridin-2-yl]amino}-4-methyl-2,3′-bipyridin-6′-yl)-1-hydroxyethyl] cyclohexanecarboxylate], the concentration for half-maximal inhibition (IC50) turned out to be 69 nM.

Consider `Cc1cc(Nc2cc(C(F)F)ccn2)nc(-c2ccc(C(C)(O)[C@H]3CC[C@H](C(=O)OC(C)OC(=O)OC(C)C)CC3)nc2)c1` (single isomer, unassigned) [Example 20-3, 1-{[(propan-2-yloxy)carbonyl]oxy}ethyl trans-4-[(1R or 1S)-1-(6-{[4-(difluoromethyl)pyridin-2-yl]amino}-4-methyl-2,3′-bipyridin-6′-yl)-1-hydroxyethyl] cyclohexanecarboxylate], for which the 50% inhibitory concentration (IC50) was 110 nM.

Consider `Cc1cc(Nc2cc(C(F)F)ccn2)nc(-c2ccc(C(C)(O)[C@H]3CC[C@H](C(=O)OC(C)OC(=O)OC4CCCCC4)CC3)nc2)c1` (single isomer, unassigned) [Example 20-4, 1-{[(cyclohexyloxy)carbonyl]oxy}ethyl trans-4-[(1R or 1S)-1-(6-{[4-(difluoromethyl)pyridin-2-yl]amino}-4-methyl-2,3′-bipyridin-6′-yl)-1-hydroxyethyl] cyclohexanecarboxylate], for which the IC50 is 510 nM.

Consider `CCOC(=O)OC(C)OC(=O)[C@H]1CC[C@H](C(C)(O)c2ccc(-c3cc(C)cc(Nc4cc(C(F)F)ccn4)n3)cn2)CC1` (single isomer, unassigned) [Example 20-5, 1-[(ethoxycarbonyl)oxy] ethyl trans-4-[(1R or 1S)-1-(6-{[4-(difluoromethyl)pyridin-2-yl]amino}-4-methyl-2,3′-bipyridin-6′-yl)-1-hydroxyethyl] cyclohexanecarboxylate], for which the half-inhibitory concentration (IC50) is 32 nM.

Take `CCOC(=O)OC(C)OC(=O)[C@H]1CC[C@H](C(C)(O)c2ccc(-c3cc(C)cc(Nc4cc(C(F)F)ccn4)n3)cn2)CC1` (single isomer, unassigned) [Example 20-6, 1-[(ethoxycarbonyl)oxy]ethyl trans-4-[(1R or 1S)-1-(6-{[4-(difluoromethyl)pyridin-2-yl]amino}-4-methyl-2,3′-bipyridin-6′-yl)-1-hydroxyethyl] cyclohexanecarboxylate]: the half-inhibitory concentration (IC50) was 21 nM.

With `Cc1cc(Nc2cc(C(F)F)ccn2)nc(-c2ccc(C(C)(O)[C@H]3CC[C@H](C(=O)OC(C)OC(=O)OC(C)C)CC3)nc2)c1` (single isomer, unassigned) [Example 20-7, 1-{[(propan-2-yloxy)carbonyl]oxy}ethyl trans-4-[(1R or 1S)-1-{6-{[4-(difluoromethyl)pyridin-2-yl]amino}-4-methyl-2,3′-bipyridin-6′-yl)-1-hydroxyethyl] cyclohexanecarboxylate], the IC50 was 100 nM.

In the case of `Cc1cc(Nc2cc(C(F)F)ccn2)nc(-c2ccc(C(C)(O)[C@H]3CC[C@H](C(=O)OC(C)OC(=O)OC(C)C)CC3)nc2)c1` (single isomer, unassigned) [Example 20-8, 1-{[(propan-2-yloxy)carbonyl]oxy}ethyl trans-4-[(1R or 1S)-1-(6-{[4-(difluoromethyl)pyridin-2-yl]amino}-4-methyl-2,3′-bipyridin-6′-yl)-1-hydroxyethyl] cyclohexanecarboxylate], the IC50 stood at 50 nM.

As to `Cc1cc(Nc2cc(C(F)F)ccn2)nc(-c2ccc(C(C)(O)[C@H]3CC[C@H](C(=O)OC(C)OC(=O)OC4CCCCC4)CC3)nc2)c1` (single isomer, unassigned) [Example 20-9, 1-{[(cyclohexyloxy)carbonyl]oxy}ethyl trans-4-[(1R or 1S)-1-(6-{[4-(difluoromethyl)pyridin-2-yl]amino}-4-methyl-2,3′-bipyridin-6′-yl)-1-hydroxyethyl] cyclohexanecarboxylate], the IC50 turned out to be 140 nM.

For `Cc1cc(Nc2cc(C(F)F)ccn2)nc(-c2ccc(C(C)(O)[C@H]3CC[C@H](C(=O)OC(C)OC(=O)OC4CCCCC4)CC3)nc2)c1` (single isomer, unassigned) [Example 20-10, 1-{[(cyclohexyloxy)carbonyl]oxy}ethyl trans-4-[(1R or 1S)-1-(6-{[4-(difluoromethyl)pyridin-2-yl]amino}-4-methyl-2,3′-bipyridin-6′-yl)-1-hydroxyethyl] cyclohexanecarboxylate], the IC50 amounted to 190 nM.

Turning to `CC(=O)OC(C)OC(=O)[C@H]1CC[C@H](C(C)(O)c2ccc(-c3cc(C)cc(Nc4cc(C(F)F)ccn4)n3)cn2)CC1` (single isomer, unassigned) [Example 21-2, 1-(acetyloxy)ethyl trans-4-[(1R or 1S)-1-(6-{[4-(difluoromethyl)pyridin-2-yl]amino}-4-methyl-2,3′-bipyridin-6′-yl)-1-hydroxyethyl] cyclohexanecarboxylate], the IC50 was 4.3 nM.

For `CC(=O)OC(C)OC(=O)[C@H]1CC[C@H](C(C)(O)c2ccc(-c3cc(C)cc(Nc4cc(C(F)F)ccn4)n3)cn2)CC1` (single isomer, unassigned) [Example 21-3, 1-(acetyloxy)ethyl trans-4-[(1R or 1S)-1-(6-{[4-(difluoromethyl)pyridin-2-yl]amino}-4-methyl-2,3′-bipyridin-6′-yl)-1-hydroxyethyl] cyclohexanecarboxylate], the 50% inhibitory concentration (IC50) was 1.5 nM.

Regarding `Cc1cc(Nc2cc(C(F)F)ccn2)nc(-c2ccc(C(C)(O)[C@H]3CC[C@H](C(=O)OC(C)OC(=O)C(C)C)CC3)nc2)c1` (single isomer, unassigned) [Example 21-4, 1-[(2-methylpropanoyl)oxy]ethyl trans-4-[(1R or 1S)-1-(6-{[4-(difluoromethyl)pyridin-2-yl]amino}-4-methyl-2,3′-bipyridin-6′-yl)-1-hydroxyethyl] cyclohexanecarboxylate], the half-maximal inhibitory concentration (IC50) is 23 nM.

For the compound `Cc1cc(Nc2cc(C(F)F)ccn2)nc(-c2ccc(C(C)(O)[C@H]3CC[C@H](C(=O)OC(C)OC(=O)C(C)C)CC3)nc2)c1` (single isomer, unassigned) [Example 21-5, 1-[(2-methylpropanoyl)oxy]ethyl trans-4-[(1R or 1S)-1-(6-{[4-(difluoromethyl)pyridin-2-yl]amino}-4-methyl-2,3′-bipyridin-6′-yl)-1-hydroxyethyl] cyclohexanecarboxylate], the half-inhibitory concentration (IC50) is 33 nM.

Consider `CC(=O)OCCOC(=O)[C@H]1CC[C@H](C(C)(O)c2ccc(-c3cc(C)cc(Nc4cc(C(F)F)ccn4)n3)cn2)CC1` (single isomer, unassigned) [Example 21-6, 2-(acetyloxy)ethyl trans-4-[(1R or 1S)-1-(6-{[4-(difluoromethyl)pyridin-2-yl]amino}-4-methyl-2,3′-bipyridin-6′-yl)-1-hydroxyethyl] cyclohexanecarboxylate], for which the IC50 was found to be 15 nM.

As for `Cc1cc(Nc2cc(C(F)F)ccn2)nc(-c2ccc(C(C)(O)[C@H]3CC[C@H](CO)CC3)nc2)c1` (single isomer, unassigned) [Example 23, (1R or 1S)-1-(6-{[4-(difluoromethyl)pyridin-2-yl]amino}-4-methyl-2,3′-bipyridin-6′-yl)-1-[trans-4-(hydroxymethyl)cyclohexyl]ethanol], the half-inhibitory concentration (IC50) was determined as 1 nM.

Regarding `Cc1cc(Nc2cc(C(F)(F)F)ccn2)nc(-c2ccc(F)nc2)c1` [Example 1-1], the IC50 worked out at 38 nM.

As to `Cc1ccnc(Nc2cc(C)cc(-c3ccc(F)nc3)n2)c1` [Example 1-2], the IC50 stood at 111 nM.

On to `Cc1ccnc(Nc2cc(C)cc(-c3ccnc(F)c3)n2)c1` [Example 1-3], for which the IC50 amounted to 135 nM.

Turning to `Cc1cc(Nc2cc(C(F)(F)F)ccn2)nc(-c2ccnc(F)c2)c1` [Example 1-4], the concentration for half-maximal inhibition (IC50) amounted to 87 nM.

As to `Cc1cc(Nc2cc(C(F)(F)F)ccn2)nc(-c2ccc(C3(O)CCN(C(=O)OC(C)(C)C)CC3)nc2)c1` [Example 1-5], the half-maximal inhibitory concentration (IC50) was found to be 406 nM.

For the compound `CCOC(=O)C1CCC(O)(c2ccc(-c3cc(C)cc(Nc4cc(C(F)(F)F)ccn4)n3)cn2)CC1` (stereo not shown) [Example 1-10], the concentration for half-maximal inhibition (IC50) came out at 45 nM.

On to `CCOC(=O)C1CCC(O)(c2ccc(-c3cc(C)cc(Nc4cc(C(F)(F)F)ccn4)n3)cn2)CC1` (stereo not shown) [Example 1-11], for which the IC50 worked out at 47 nM.

For `COC(=O)C1CCC(C(=O)c2ccc(-c3cc(C)cc(Nc4cc(C(F)(F)F)ccn4)n3)cn2)CC1` (stereo not shown) [Example 1-12], the concentration for half-maximal inhibition (IC50) was determined as 643 nM.

As to `Cc1cc(Nc2cc(C(F)F)ccn2)nc(-c2ccc(C3(O)CCC3)nc2)c1` [Example 1-13], the IC50 amounted to 5 nM.

Regarding `Cc1cc(Nc2cc(C(F)F)ccn2)nc(-c2ccc(C(C)(C)O)nc2)c1` [Example 1-14], the IC50 was 8 nM.

`CCCCOC(=O)C1CCC(C(C)(O)c2ccc(-c3cc(C)cc(Nc4cc(C(F)(F)F)ccn4)n3)cn2)CC1` (stereo not shown) [Example 1-15]: the IC50 amounted to 19 nM.

Consider `CCC(O)(c1ccc(-c2cc(C)cc(Nc3cc(C(F)(F)F)ccn3)n2)cn1)C1CCC(C(=O)OC)CC1` (stereo not shown) [Example 1-16], for which the 50% inhibitory concentration (IC50) amounted to 12 nM.

In the case of `COC(=O)C1CCC(C(O)(c2ccc(-c3cc(C)cc(Nc4cc(C(F)(F)F)ccn4)n3)cn2)C2CC2)CC1` (stereo not shown) [Example 1-17], the half-maximal inhibitory concentration (IC50) amounted to 16 nM.

As for `Cc1cc(Nc2cc(C(F)(F)F)ccn2)nc(-c2ccc(C3(O)CCC(C(=O)O)CC3)nc2)c1` (stereo not shown) [Example 1-18], the half-inhibitory concentration (IC50) amounted to 1 nM.

Regarding `Cc1cc(Nc2cc(C(F)(F)F)ccn2)nc(-c2ccc(C3(O)CCC(C(=O)O)CC3)nc2)c1` (stereo not shown) [Example 1-19], the half-maximal inhibitory concentration (IC50) came to 3 nM.
